Common to all, as to assay type: in vivo
Assay [1] concerns Alopecurus myosuroides (ALOMY). In words: Pre-emergence biological efficacy, glasshouse pot test. The conditions noted are these: 312 h, pre-emergence, rate 1,000 g/ha, evaluated after 13 days (100=total damage to plant; 0=no damage), read-out: Percentage damage caused to weed species, ALOMY. The method in brief: (§1)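 Standard soil, pots, sown then sprayed at day 1 with 1000 or 250 g/ha test compound. Glasshouse: 24/16 °C, 14 h photoperiod, 65% humidity, twice-daily watering. Evaluation day 13, 0–100 damage score.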

Assay [2] concerns Amaranthus retoflexus (AMARE). The description is as above. As to conditions: Amaranthus retroflexus, 312 h; pre-emergence, rate 1,000 g/ha, evaluated after 13 days (100=total damage to plant; 0=no damage); read-out: Percentage damage caused to weed species, AMARE. The method in brief:
as §1

Assay [3] relates to Echinochloa crus-galli (ECHCG). Described as above. As to conditions: 312 h, pre-emergence, rate 1,000 g/ha, evaluated after 13 days (100=total damage to plant; 0=no damage), read-out: Percentage damage caused to weed species, ECHCG. The method in brief: as §1
In assay [4] the test system is Ipomea hederaceae (IPOHE). Described as above. The conditions noted are these: Ipomoea hederacea, 312 h; pre-emergence, rate 1,000 g/ha, evaluated after 13 days (100=total damage to plant; 0=no damage); read-out: Percentage damage caused to weed species, IPOHE. The method in brief: as §1
Assay [5] has as its system Setaria faberi (SETFA). The description is as above. As to conditions: 312 h, pre-emergence, rate 1,000 g/ha, evaluated after 13 days (100=total damage to plant; 0=no damage), read-out: Percentage damage caused to weed species, SETFA. The procedure, abridged: as §1
Assay [6] deals with Solanum nigrum (SOLNI). Described as above. As to conditions: 312 h, pre-emergence, rate 1,000 g/ha, evaluated after 13 days (100=total damage to plant; 0=no damage), read-out: Percentage damage caused to weed species, SOLNI. The procedure, abridged: as §1
Assay [7] deals with Alopecurus myosuroides (ALOMY). In words: Post-emergence biological efficacy, glasshouse pot test. The conditions noted are these: 312 h, Rate 1,000 g/ha, post-emergence spray, evaluated after 13 days (100=total damage to plant; 0=no damage to plant), read-out: Percentage damage caused to weed species, post-emergence, ALOMY. The procedure, abridged: (§2)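 Scored 13 days after spraying on a 0 (no damage) to 100 (total damage) scale. Treatment was a post-emergence spray at 1000 or 250 g/ha, from acetone/water 50:50 plus 0.5% Tween 20, onto 8-day-old plants in soil pots. Growth at 24/16° C, 14 h photoperiod, 65% humidity, watered twice daily.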

Assay [8] concerns Amaranthus retoflexus (AMARE). The assay is described as above. As to conditions: Amaranthus retroflexus, 312 h; Rate 1,000 g/ha; post-emergence spray; evaluated after 13 days (100=total damage to plant; 0=no damage to plant); read-out: Percentage damage caused to weed species, post-emergence, AMARE. The method in brief:
as §2

Assay [9] has as its system Echinochloa crus-galli (ECHCG). Described as above. As to conditions: 312 h, Rate 1,000 g/ha, post-emergence spray, evaluated after 13 days (100=total damage to plant; 0=no damage to plant), read-out: Percentage damage caused to weed species, post-emergence, ECHCG. The method in brief: as §2
In assay [10] the test system is Ipomea hederaceae (IPOHE). The description is as above. The conditions noted are these: Ipomoea hederacea, 312 h; Rate 1,000 g/ha; post-emergence spray; evaluated after 13 days (100=total damage to plant; 0=no damage to plant); read-out: Percentage damage caused to weed species, post-emergence, IPOHE. The method in brief:
as §2

For assay [11], the system named is Setaria faberi (SETFA). The assay is described as above. The conditions noted are these: 312 h, Rate 1,000 g/ha, post-emergence spray, evaluated after 13 days (100=total damage to plant; 0=no damage to plant), read-out: Percentage damage caused to weed species, post-emergence, SETFA. The procedure, abridged:
as §2

For assay [12], the system named is Solanum nigrum (SOLNI). Described as above. As to conditions: 312 h, Rate 1,000 g/ha, post-emergence spray, evaluated after 13 days (100=total damage to plant; 0=no damage to plant), read-out: Percentage damage caused to weed species, post-emergence, SOLNI. The method in brief:
as §2

`CCN(Cc1ccc(F)cc1)c1nc(C2CC2)nc(C(=O)OC)c1Cl` [Compound 6-66, 5-Chloro-2-cyclopropyl-4-[N-ethyl-N-(4-fluorophenylmethyl)-amino]-6-methoxycarbonyl-pyrimidine]: the pest or weed control at 1000 g/ha in [1] was determined as 20%; in [2], 50%; in assay [3] it was 0%; in assay [4] it was 80%; with Setaria faberi (SETFA) [5] it was 10%; in the assay on Solanum nigrum (SOLNI) [6], 20%. In addition, the pest or weed control at 1000 g/ha stood at 40% in assay [7]; 100% in assay [8]; 60% in [9]; 100% in [10]; 90% in the assay with Setaria faberi (SETFA) [11]; 90% in the assay with Solanum nigrum (SOLNI) [12].

Take `CCN(Cc1c(F)cccc1Cl)c1nc(C2CC2)nc(C(=O)OC)c1Cl` [Compound 6-102, 5-Chloro-4-[N-(2-chloro-6-fluorophenylmethyl)-N-ethyl-amino]-2-cyclopropyl-6-methoxycarbonyl-pyrimidine]: the pest or weed control at 1000 g/ha stood at 0% in assay [1]; 100% in assay [2]; 0% in assay [3]; 60% in [4]; 0% in the assay on Setaria faberi (SETFA) [5]; 60% in the assay on Solanum nigrum (SOLNI) [6]. In addition, the pest or weed control at 1000 g/ha in assay [7] amounted to 20%; in [8] it was 100%; in assay [9] it was 70%; in assay [10] it was 90%; in the assay with Setaria faberi (SETFA) [11], 80%; with Solanum nigrum (SOLNI) [12], 90%.

Take `CCN(Cc1ccc(OC)c(OC)c1)c1nc(C2CC2)nc(C(=O)OC)c1Cl` [Compound 6-112, 5-Chloro-2-cyclopropyl-4-[N-(3,4-dimethoxy-phenylmethyl)-N-ethyl-amino]-6-methoxycarbonyl-pyrimidine]: the pest or weed control at 1000 g/ha in assay [1] stood at 10%; in assay [2] it was 60%; in assay [3] it was 10%; in assay [4], 60%; with Setaria faberi (SETFA) [5], 0%; with Solanum nigrum (SOLNI) [6], 10%. Besides, the pest or weed control at 1000 g/ha in assay [7] was 30%; in assay [8] it was 100%; in [9] it was 70%; in assay [10], 80%; with Setaria faberi (SETFA) [11] it was 80%; in the assay with Solanum nigrum (SOLNI) [12], 80%.

Take `CCN(Cc1ccco1)c1nc(C2CC2)nc(C(=O)OC)c1Cl` [Compound 6-125, 5-Chloro-2-cyclopropyl-4-(N-ethyl-N-furan-2-ylmethyl-amino)-6-methoxycarbonyl-pyrimidine]: the pest or weed control at 1000 g/ha turned out to be 50% in [1]; 90% in assay [2]; 40% in assay [3]; 100% in [4]; 30% in the assay on Setaria faberi (SETFA) [5]; 80% in the assay with Solanum nigrum (SOLNI) [6]. Moreover, the pest or weed control at 1000 g/ha in assay [7] turned out to be 40%; in assay [8], 100%; in assay [9] it was 60%; in assay [10], 100%; with Setaria faberi (SETFA) [11], 90%; in the assay on Solanum nigrum (SOLNI) [12], 90%.

Take `CCN(Cc1ccc(C)o1)c1nc(C2CC2)nc(C(=O)OC)c1Cl` [Compound 6-135, 5-Chloro-2-cyclopropyl-4-[N-ethyl-N-(5-methylfuran-2-ylmethyl)-amino]-6-methoxycarbonyl-pyrimidine]: the pest or weed control at 1000 g/ha in assay [1] amounted to 40%; in assay [2] it was 100%; in assay [3], 60%; in assay [4], 100%; in the assay on Setaria faberi (SETFA) [5] it was 40%; in the assay on Solanum nigrum (SOLNI) [6], 80%. Further, the pest or weed control at 1000 g/ha came out at 30% in assay [7]; 100% in [8]; 60% in assay [9]; 90% in assay [10]; 90% with Setaria faberi (SETFA) [11]; 90% in the assay on Solanum nigrum (SOLNI) [12].

As to `CCN(Cc1cccs1)c1nc(C2CC2)nc(C(=O)OC)c1Cl` [Compound 6-140, 5-Chloro-2-cyclopropyl-4-(N-ethyl-N-thiophen-2-ylmethyl-amino)6-methoxycarbonyl-pyrimidine], the pest or weed control at 1000 g/ha came to 10% in assay [1]; 80% in assay [2]; 20% in [3]; 80% in assay [4]; 0% with Setaria faberi (SETFA) [5]; 30% in the assay with Solanum nigrum (SOLNI) [6]. Moreover, the pest or weed control at 1000 g/ha stood at 40% in [7]; 100% in assay [8]; 40% in assay [9]; 100% in [10]; 70% in the assay on Setaria faberi (SETFA) [11]; 80% with Solanum nigrum (SOLNI) [12].

Consider `CCN(Cc1ccc(Br)s1)c1nc(C2CC2)nc(C(=O)OC)c1Cl` [Compound 6-142, 4-[N-(5-bromothiophen-2-ylmethyl)-N-ethyl-amino]-5-chloro-2-cyclopropyl-6-methoxycarbonyl-pyrimidine], for which the pest or weed control at 1000 g/ha worked out at 0% in assay [1]; 50% in assay [2]; 0% in [3]; 60% in [4]; 10% in the assay with Setaria faberi (SETFA) [5]; 10% with Solanum nigrum (SOLNI) [6]. Moreover, the pest or weed control at 1000 g/ha in [7] was 30%; in assay [8] it was 100%; in assay [9], 60%; in assay [10], 100%; in the assay with Setaria faberi (SETFA) [11], 90%; with Solanum nigrum (SOLNI) [12] it was 90%.

`CCN(Cc1ccnc(C)n1)c1nc(C2CC2)nc(C(=O)OC)c1Cl` [Compound 6-161, 5-Chloro-2-cyclopropyl-4-[N-ethyl-N-(2-methylpyrimidin-4-ylmethyl)-amino]-6-methoxycarbonyl-pyrimidine]: the pest or weed control at 1000 g/ha in assay [1] worked out at 0%; in assay [2], 100%; in assay [3], 0%; in assay [4], 80%; in the assay with Setaria faberi (SETFA) [5], 0%; with Solanum nigrum (SOLNI) [6] it was 20%. Besides, the pest or weed control at 1000 g/ha in [7] was 0%; in assay [8] it was 70%; in assay [9], 0%; in assay [10] it was 80%; with Setaria faberi (SETFA) [11] it was 30%; in the assay on Solanum nigrum (SOLNI) [12], 70%.

For the origin of these results see patent US20110086759A1, “CHEMICAL COMPOUNDS” (SYNGENTA CROP PROTECTION, INC., priority 2007, published 2011).
